Values quoted from earlier work, collected in patent US4230714A, “Imidazole therapeutic agents” (Pfizer Inc., priority 1978, dated 1980).

Tests used:
[1] = system: platelet clumping and embolization in the lungs; details: rabbit, intravenous arachidonic acid
[2] = system: human blood platelet aggregation; details: variety of aggregating agents
aggregation of platelets = details: rat, extra corporeal loop of the abdominal aorta

## CC(=O)Oc1ccccc1C(=O)O [aspirin]
[1]
  protection from the lethal effect of arachidonic acid injection: protect the rabbit from the lethal effect of the injection
[2]
  inhibitory activity against platelet aggregation in vitro: show inhibitory activity in vitro

## O=C1C(CC[S+]([O-])c2ccccc2)C(=O)N(c2ccccc2)N1c1ccccc1 (stereo not shown) [sulphinpyrazone]
Aggregation of platelets
  prevention of platelet aggregation in vivo: prevent the aggregation of platelets
[2]
  inhibitory activity against platelet aggregation in vitro: show inhibitory activity in vitro
